Experimental data taken from US20120244567A1, “HUMAN EMBRYONIC STEM CELLS FOR HIGH THROUGHOUT DRUG SCREENING” (BUCK INSTITUTE FOR RESEARCH ON AGING, priority 2009, published 2012).
Where a name gives a salt, the structure may show the parent alone.

System: dopaminergic neurons
Description: RNAs isolated from NSCs and neurons with and without drug treatments were hybridized to Illumina HumanRef-8 BeadChip (Illumina, Inc., San Diego, Calif., performed by Microarray core facility at the Burnham Institute for Medical Research). The Illumina array data were normalized by the quantile method, and then transformed log 2 ratio values for a zero mean for expression values of each gene across all samples. The statistical and bioinformatics analyses were conducted by using R and the bioconductor package (www.bioconductor.org). The gene set enrichment analysis was conducted using the GSEA software (www.broad.mit.edu/gsea).
The comparative results are then measured by a non-parametric, running sum statistic termed the enrichment score. The enrichment score significance is assessed by 1,000 permutation tests to compute the enrichment p-value.

[1] = enriched in treated DA neurons, Nom P-Val 0.910714
[2] = enriched in treated DA neurons, Nom P-Val 1
[3] = enriched in untreated DA neurons, NOM p-val 0
[4] = enriched in untreated DA neurons, NOM p-val 0.111111
[5] = enriched in untreated DA neurons, NOM p-val 0.166667
[6] = enriched in untreated DA neurons, NOM p-val 0.444444
[7] = enriched in untreated DA neurons, NOM p-val 0.818182
[8] = enriched in untreated DA neurons, NOM p-val 0.90625
[9] = enriched in untreated DA neurons, NOM p-val 0.955556
[10] = enriched in untreated DA neurons, NOM p-val 1

In the case of `CCCCc1oc2ccccc2c1C(=O)c1cc(I)c(OCCN(CC)CC)c(I)c1` [Amiodarone Hydrochloride], the “Nes: Transferase Activity Transferring Glycosyl Groups” value (enriched in treated DA neurons, Nom P-Val 0.864865) is reported as 0.8297, the “Nes: Cation Binding” value (enriched in treated DA neurons, Nom P-Val 0.894737) is reported as 0.7825 and the “Nes: Calmodulin Binding” value [1] is reported as 0.6917. The “Nes: Protein N Terminus Binding” value [1] was 0.7167, the “Nes: Guanyl Nucleotide Binding” value (enriched in treated DA neurons, Nom P-Val 0.913044) was 0.72 and the “Nes: Hydrolase Activity Acting On Ester Bonds” value (enriched in treated DA neurons, Nom P-Val 0.924051) was 0.7747. The “Nes: Transcription Corepressor Activity” value (enriched in treated DA neurons, Nom P-Val 0.942857) was 0.6958, the “Nes: Atpase Activity Coupled To Transmembrane Movement Of Ions” value (enriched in treated DA neurons, Nom P-Val 0.944444) was 0.5935 and the “Nes: Structural Molecule Activity” value (enriched in treated DA neurons, Nom P-Val 0.963415) was 0.7324. For the same molecule, the “Nes: Transferase Activity Transferring Alkyl Or Aryl Other Than Methyl Groups” value (enriched in treated DA neurons, Nom P-Val 0.968254) was 0.6284, the “Nes: Actin Filament Binding” value (enriched in treated DA neurons, Nom P-Val 0.983871) was 0.3138 and the “Nes: Mrna Binding” value (enriched in treated DA neurons, Nom P-Val 0.984375) was 0.4087. The “Nes: Transcription Factor Binding” value (enriched in treated DA neurons, Nom P-Val 0.987013) was 0.742, the “Nes: Phosphoric Ester Hydrolase Activity” value (enriched in treated DA neurons, Nom P-Val 0.9875) was 0.6959 and the “Nes: Atpase Activity” value [2] was 0.6528. For the same molecule, the “Nes: Rna Binding” value [2] was 0.4406, the “Nes: Translation Initiation Factor Activity” value [2] was 0.3311 and the “NES: Gtpase Binding” value [3] was −1.62. For the same molecule, the “NES: Hydrolase Activity Hydrolyzing O Glycosyl Compounds” value [3] was −1.479, the “NES: Ras Gtpase Binding” value (enriched in untreated DA neurons, NOM p-val 0.02) was −1.585 and the “NES: Cation Channel Activity” value (enriched in untreated DA neurons, NOM p-val 0.027778) was −1.394. For the same molecule, the “NES: Small Gtpase Binding” value (enriched in untreated DA neurons, NOM p-val 0.047619) was −1.4967, the “NES: Gated Channel Activity” value (enriched in untreated DA neurons, NOM p-val 0.051282) was −1.491 and the “NES: Ion Channel Activity” value (enriched in untreated DA neurons, NOM p-val 0.060606) was −1.2. The “NES: Hydrolase Activity Acting On Glycosyl Bonds” value (enriched in untreated DA neurons, NOM p-val 0.08) was −1.414, the “NES: Nucleobase Nucleoside Nucleotide Kinase Activity” value (enriched in untreated DA neurons, NOM p-val 0.081081) was −1.368 and the “NES: Voltage Gated Channel Activity” value (enriched in untreated DA neurons, NOM p-val 0.085714) was −1.284. For the same molecule, the “NES: Kinase Binding” value (enriched in untreated DA neurons, NOM p-val 0.1) was −1.316, the “NES: Exopeptidase Activity” value (enriched in untreated DA neurons, NOM p-val 0.105263) was −1.3223 and the “NES: Metal Ion Transmembrane Transporter Activity” value [4] was −1.269. For the same molecule, the “NES: Potassium Channel Activity” value [4] was −1.325, the “NES: Substrate Specific Channel Activity” value (enriched in untreated DA neurons, NOM p-val 0.129032) was −1.221 and the “NES: Chromatin Binding” value (enriched in untreated DA neurons, NOM p-val 0.142857) was −1.239. The “NES: Gtpase Activator Activity” value (enriched in untreated DA neurons, NOM p-val 0.157895) was −1.222, the “NES: Phosphoprotein Phosphatase Activity” value (enriched in untreated DA neurons, NOM p-val 0.162162) was −1.15 and the “NES: Electron Carrier Activity” value [5] was −1.204. For the same molecule, the “NES: Voltage Gated Cation Channel Activity” value [5] was −1.174, the “NES: Transition Metal Ion Binding” value (enriched in untreated DA neurons, NOM p-val 0.171429) was −1.098 and the “NES: Protein C Terminus Binding” value (enriched in untreated DA neurons, NOM p-val 0.212121) was −1.195. For the same molecule, the “NES: Helicase Activity” value (enriched in untreated DA neurons, NOM p-val 0.216216) was −1.187, the “NES: Protein Complex Binding” value (enriched in untreated DA neurons, NOM p-val 0.222222) was −1.133 and the “NES: Enzyme Binding” value (enriched in untreated DA neurons, NOM p-val 0.233333) was −1.04. For the same molecule, the “NES: Ras Gtpase Activator Activity” value (enriched in untreated DA neurons, NOM p-val 0.243902) was −1.144, the “NES: S Adenosylmethionine Dependent Methyltransferase Activity” value (enriched in untreated DA neurons, NOM p-val 0.25) was −1.2358 and the “NES: Ligand Gated Channel Activity” value (enriched in untreated DA neurons, NOM p-val 0.263158) was −1.236. The “NES: Cation Transmembrane Transporter Activity” value (enriched in untreated DA neurons, NOM p-val 0.291667) was −1.08, the “NES: Rho Gtpase Activator Activity” value (enriched in untreated DA neurons, NOM p-val 0.297297) was −1.16 and the “NES: Rna Dependent Atpase Activity” value (enriched in untreated DA neurons, NOM p-val 0.318182) was −1.11. The “NES: Atp Dependent Helicase Activity” value (enriched in untreated DA neurons, NOM p-val 0.324324) was −1.133, the “NES: Methyltransferase Activity” value (enriched in untreated DA neurons, NOM p-val 0.340909) was −1.089 and the “NES: Auxiliary Transport Protein Activity” value (enriched in untreated DA neurons, NOM p-val 0.347826) was −1.141. For the same molecule, the “NES: Transcription Factor Activity” value (enriched in untreated DA neurons, NOM p-val 0.35) was −1.022, the “NES: Rna Helicase Activity” value (enriched in untreated DA neurons, NOM p-val 0.365854) was −1.053 and the “NES: Growth Factor Activity” value (enriched in untreated DA neurons, NOM p-val 0.367347) was −1.079. For the same molecule, the “NES: Small Gtpase Regulator Activity” value (enriched in untreated DA neurons, NOM p-val 0.387097) was −1.038, the “NES: Phosphotransferase Activity Phosphate Group As Acceptor” value (enriched in untreated DA neurons, NOM p-val 0.431818) was −1.058 and the “NES: Protein Tyrosine Phosphatase Activity” value (enriched in untreated DA neurons, NOM p-val 0.432432) was −1.019. The “NES: Peptidase Activity” value [6] was −0.9811, the “NES: Tubulin Binding” value [6] was −0.9894 and the “NES: Cytokine Binding” value (enriched in untreated DA neurons, NOM p-val 0.459459) was −0.9644. For the same molecule, the “NES: Gtpase Regulator Activity” value (enriched in untreated DA neurons, NOM p-val 0.461538) was −0.9685, the “NES: Actin Binding” value (enriched in untreated DA neurons, NOM p-val 0.464286) was −1.007 and the “NES: Transferase Activity Transferring One Carbon Groups” value (enriched in untreated DA neurons, NOM p-val 0.466667) was −0.9965. For the same molecule, the “NES: Receptor Binding” value (enriched in untreated DA neurons, NOM p-val 0.47619) was −0.9865, the “NES: Protein Serine Threonine Phosphatase Activity” value (enriched in untreated DA neurons, NOM p-val 0.48718) was −0.9907 and the “NES: Polysaccharide Binding” value (enriched in untreated DA neurons, NOM p-val 0.5) was −0.9231. For the same molecule, the “NES: Atp Dependent Rna Helicase Activity” value (enriched in untreated DA neurons, NOM p-val 0.52381) was −1.022, the “NES: Sh3 Sh2 Adaptor Activity” value (enriched in untreated DA neurons, NOM p-val 0.542857) was −0.8755 and the “NES: Pattern Binding” value (enriched in untreated DA neurons, NOM p-val 0.567568) was −0.9438. The “NES: Glycosaminoglycan Binding” value (enriched in untreated DA neurons, NOM p-val 0.571429) was −0.9097, the “NES: Phosphoric Monoester Hydrolase Activity” value (enriched in untreated DA neurons, NOM p-val 0.612903) was −0.9735 and the “NES: Hydrolase Activity Acting On Carbon Nitrogen But Not Peptide Bonds” value (enriched in untreated DA neurons, NOM p-val 0.634146) was −0.8501. The “NES: Cofactor Binding” value (enriched in untreated DA neurons, NOM p-val 0.636364) was −0.8571, the “NES: Protein Tyrosine Kinase Activity” value (enriched in untreated DA neurons, NOM p-val 0.657143) was −0.8381 and the “NES: Oxidoreductase Activity Go 0016705” value (enriched in untreated DA neurons, NOM p-val 0.675676) was −0.8606. The “NES: Growth Factor Binding” value (enriched in untreated DA neurons, NOM p-val 0.705882) was −0.8342, the “NES: Signal Sequence Binding” value (enriched in untreated DA neurons, NOM p-val 0.707317) was −0.8186 and the “NES: Cysteine Type Peptidase Activity” value (enriched in untreated DA neurons, NOM p-val 0.714286) was −0.844. For the same molecule, the “NES: Dna Dependent Atpase Activity” value (enriched in untreated DA neurons, NOM p-val 0.783784) was −0.8332, the “NES: Cysteine Type Endopeptidase Activity” value [7] was −0.8093 and the “NES: Oxidoreductase Activity” value [7] was −0.9148. The “NES: Organic Acid Transmembrane Transporter Activity” value (enriched in untreated DA neurons, NOM p-val 0.833333) was −0.7234, the “NES: Lipid Binding” value (enriched in untreated DA neurons, NOM p-val 0.852941) was −0.7964 and the “NES: Ribonuclease Activity” value (enriched in untreated DA neurons, NOM p-val 0.875) was −0.6173. For the same molecule, the “NES: Protein Kinase Regulator Activity” value (enriched in untreated DA neurons, NOM p-val 0.885714) was −0.7344, the “NES: Rna Splicing Factor Activity Transesterification Mechanism” value (enriched in untreated DA neurons, NOM p-val 0.891892) was −0.5675 and the “NES: Specific Rna Polymerase Ii Transcription Factor Activity” value (enriched in untreated DA neurons, NOM p-val 0.904762) was −0.6412. The “NES: Isomerase Activity” value [8] was −0.6048, the “NES: Transcription Activator Activity” value [8] was −0.8411 and the “NES: Kinase Regulator Activity” value (enriched in untreated DA neurons, NOM p-val 0.911765) was −0.6989. The “NES: Phospholipid Binding” value (enriched in untreated DA neurons, NOM p-val 0.914894) was −0.6869, the “NES: Atpase Activity Coupled” value (enriched in untreated DA neurons, NOM p-val 0.925926) was −0.7071 and the “NES: Carboxylic Acid Transmembrane Transporter Activity” value (enriched in untreated DA neurons, NOM p-val 0.947368) was −0.696. The “NES: Phosphoinositide Binding” value (enriched in untreated DA neurons, NOM p-val 0.953488) was −0.5604, the “NES: Amino Acid Transmembrane Transporter Activity” value [9] was −0.4938 and the “NES: Serine Hydrolase Activity” value [9] was −0.6304. The “NES: Hormone Receptor Binding” value (enriched in untreated DA neurons, NOM p-val 0.969697) was −0.4774, the “NES: Protein Heterodimerization Activity” value (enriched in untreated DA neurons, NOM p-val 0.971429) was −0.7909 and the “NES: Oxidoreductase Activity Acting On Nadh Or Nadph” value (enriched in untreated DA neurons, NOM p-val 0.975) was −0.4995. For the same molecule, the “NES: Serine Type Peptidase Activity” value (enriched in untreated DA neurons, NOM p-val 0.97561) was −0.6529, the “NES: Amine Transmembrane Transporter Activity” value [10] was −0.4108 and the “NES: Nucleotidyltransferase Activity” value [10] was −0.497. For the same molecule, the “NES: Structural Constituent Of Ribosome” value [10] was −0.2676 and the “NES: Serine Type Endopeptidase Activity” value (enriched in untreated DA neurons, NOM p-val […]) was −0.6588.
